Patent US7968591B2, “1,3-disubstituted 4-methyl-1H-pyrrole-2-carboxamides and their use in medicaments” (Gruenenthal GmbH, priority 2006, dated 2011)

What follows are molecules tested on batrachotoxin (BTX) binding site of the sodium channel (assay: Affinity for the batrachotoxin (BTX) binding site of the sodium channel). Conditions: rat cerebrocortex synaptosomes, [3H]-Batrachotoxinin A20α benzoate 10 nM.

SMILES | BTX (Na+ channel) (% inhibition at 10 μM)
COc1ccc(CN2CCN(C(=O)c3c(-c4ccco4)c(C)cn3Cc3ccc(F)cc3)CC2)cc1F [Example 75, [1-(4-fluorobenzyl)-3-furan-2-yl-4-methyl-1H-pyrrol-2-yl]-[4-(3-fluoro-4-methoxybenzyl)-piperazin-1-yl]-methanone] | 89%
COc1ccc(-c2c(C)cn(C)c2C(=O)N2CCN(c3cc(C)ccc3C)CC2)cc1 [Example 52, [4-(2,5-dimethylphenyl)-piperazin-1-yl]-[3-(4-methoxyphenyl)-1,4-dimethyl-1H-pyrrol-2-yl]-methanone] | 76%
CCCCn1cc(C)c(-c2ccc(C)cc2)c1C(=O)N1CCN(Cc2cc(OC)ccc2OC)CC1 [Example 68, (1-butyl-4-methyl-3-p-tolyl-1H-pyrrol-2-yl)-[4-(2,5-dimethoxybenzyl)-piperazin-1-yl]-methanone] | 84%
Cc1ccc(-c2c(C)cn(Cc3ccccc3)c2C(=O)NCCN2CCCC2)cc1 [Example 74, 1-benzyl-4-methyl-3-p-tolyl-1H-pyrrole-2-carboxylic acid (2-pyrrolidin-1-ylethyl)-amide] | 101%
COc1ccc(F)c(CN2CCN(C(=O)c3c(-c4ccc(Cl)cc4)c(C)cn3C)CC2)c1 [Example 66, [3-(4-chlorophenyl)-1,4-dimethyl-1H-pyrrol-2-yl]-[4-(2-fluoro-5-methoxybenzyl)-piperazin-1-yl]-methanone] | 73%
Cc1ccc(-c2c(C)cn(Cc3c(Cl)cccc3Cl)c2C(=O)N2CCC(O)CC2)cc1 [Example 48, [1-(2,6-dichlorobenzyl)-4-methyl-3-p-tolyl-1H-pyrrol-2-yl]-(4-hydroxypiperidin-1-yl)-methanone] | 36%
CCN(CC)CCN1CCN(C(=O)c2c(-c3ccc(C)cc3)c(C)cn2Cc2ccc(C)cc2)CC1 [Example 69, [4-(2-diethylamino-ethyl)-piperazin-1-yl]-[4-methyl-1-(4-methylbenzyl)-3-p-tolyl-1H-pyrrol-2-yl]-methanone] | 91%
Cc1cn(C)c(C(=O)N2CCN(c3ccncc3)CC2)c1-c1ccc(Cl)cc1 [Example 57, [3-(4-chlorophenyl)-1,4-dimethyl-1H-pyrrol-2-yl]-(4-pyridin-4-ylpiperazin-1-yl)-methanone] | 76%
CCOc1ccc(Br)cc1CN1CCN(C(=O)c2c(-c3ccco3)c(C)cn2Cc2ccccc2)CC1 [Example 45, (1-benzyl-3-furan-2-yl-4-methyl-1H-pyrrol-2-yl)-[4-(5-bromo-2-ethoxybenzyl)-piperazin-1-yl]-methanone] | 89%
CCn1cc(C)c(-c2ccc(Cl)cc2)c1C(=O)NCCC(=O)OC(C)(C)C [Example 43, 3-{[3-(4-chlorophenyl)-1-ethyl-4-methyl-1H-pyrrole-2-carbonyl]-amino}-propionic acid tert.-butyl ester] | 31%
CCOc1ccc(Br)cc1CN1CCN(C(=O)c2c(-c3ccccc3)c(C)cn2C)CC1 [Example 41, [4-(5-bromo-2-ethoxybenzyl)-piperazin-1-yl]-(1,4-dimethyl-3-phenyl-1H-pyrrol-2-yl)-methanone] | 77%
Cc1cn(Cc2ccc(F)cc2)c(C(=O)NCCCN(C)C)c1-c1ccco1 [Example 63, 1-(4-fluorobenzyl)-3-furan-2-yl-4-methyl-1H-pyrrole-2-carboxylic acid (3-dimethylamino-propyl)-amide] | 75%
Cc1cn(C)c(C(=O)N2CCN(C3CCCCCC3)CC2)c1-c1ccco1 [Example 61, (4-cycloheptylpiperazin-1-yl)-(3-furan-2-yl-1,4-dimethyl-1H-pyrrol-2-yl)-methanone] | 64%
COc1ccc(OCCNC(=O)c2c(-c3ccccc3)c(C)cn2Cc2ccccc2)cc1 [Example 62, 1-benzyl-4-methyl-3-phenyl-1H-pyrrole-2-carboxylic acid [2-(4-methoxyphenoxy)-ethyl]-amide] | 50%
Cc1cn(Cc2ccccc2Br)c(C(=O)N2CCN(C(C)C)CC2)c1-c1ccc(Cl)cc1 [Example 71, [1-(2-bromobenzyl)-3-(4-chlorophenyl)-4-methyl-1H-pyrrol-2-yl]-(4-isopropylpiperazin-1-yl)-methanone] | 83%
Cc1cn(Cc2ccc(F)cc2)c(C(=O)NCCN2CCOCC2)c1-c1ccco1 [Example 50, 1-(4-fluorobenzyl)-3-furan-2-yl-4-methyl-1H-pyrrole-2-carboxylic acid (2-morpholin-4-ylethyl)-amide] | 77%
COc1ccc(-c2c(C)cn(Cc3ccc(F)cc3)c2C(=O)NCCc2cccs2)cc1 [Example 35, 1-(4-fluorobenzyl)-3-(4-methoxyphenyl)-4-methyl-1H-pyrrole-2-carboxylic acid (2-thiophen-2-ylethyl)-amide] | 48%

SMILES | BTX (Na+ channel) (% inhibition at 10 μM)
Cc1cnc(C(=O)N2CCN(C(=O)c3c(-c4ccc(Cl)cc4)c(C)cn3Cc3ccccc3F)CC2)cn1 [Example 55, [3-(4-chlorophenyl)-1-(2-fluorobenzyl)-4-methyl-1H-pyrrol-2-yl]-[4-(5-methylpyrazin-2-carbonyl)-piperazin-1-yl]-methanone] | 44%
CCN(CC)CCCNC(=O)c1c(-c2ccc(Cl)cc2)c(C)cn1CC(C)C [Example 65, 3-(4-chlorophenyl)-1-isobutyl-4-methyl-1H-pyrrole-2-carboxylic acid (3-diethylamino-propyl)-amide] | 88%
Cc1ccccc1N1CCN(C(=O)c2c(-c3ccc(Cl)cc3)c(C)cn2C)CC1 [Example 46, [3-(4-chlorophenyl)-1,4-dimethyl-1H-pyrrol-2-yl]-(4-o-tolylpiperazin-1-yl)-methanone] | 55%
COc1ccc(CN2CCN(C(=O)c3c(-c4ccccc4)c(C)cn3C)CC2)cc1F [Example 59, (1,4-dimethyl-3-phenyl-1H-pyrrol-2-yl)-[4-(3-fluoro-4-methoxybenzyl)-piperazin-1-yl]-methanone] | 75%
COc1ccc(Cn2cc(C)c(-c3ccc(C)cc3)c2C(=O)N(C)CC(=O)OCc2ccccc2)cc1 [Example 39, {[1-(4-methoxybenzyl)-4-methyl-3-p-tolyl-1H-pyrrole-2-carbonyl]-methylamino}-acetic acid benzyl ester] | 74%
COc1ccc(CNC(=O)c2c(-c3ccc(Cl)cc3)c(C)cn2Cc2ccccc2F)c(OC)c1 [Example 73, 3-(4-chlorophenyl)-1-(2-fluorobenzyl)-4-methyl-1H-pyrrole-2-carboxylic acid 2,4-dimethoxybenzylamide] | 49%
Cc1cn(Cc2ccccc2)c(C(=O)NCCc2ccc(F)cc2)c1-c1ccc(Cl)cc1 [Example 51, 1-benzyl-3-(4-chlorophenyl)-4-methyl-1H-pyrrole-2-carboxylic acid [2-(4-fluorophenyl)-ethyl]-amide] | 43%
COc1ccc(-c2c(C)cn(C)c2C(=O)NCCCn2ccnc2)cc1 [Example 53, 3-(4-methoxyphenyl)-1,4-dimethyl-1H-pyrrole-2-carboxylic acid (3-imidazol-1-ylpropyl)-amide] | 44%
Cc1cn(Cc2ccccc2)c(C(=O)NCCN2CCCC2)c1-c1ccccc1 [Example 77, 1-benzyl-4-methyl-3-phenyl-1H-pyrrole-2-carboxylic acid (2-pyrrolidin-1-ylethyl)-amide] | 91%
Cc1cn(Cc2ccccc2F)c(C(=O)NCCCn2ccnc2)c1-c1ccc(Cl)cc1 [Example 58, 3-(4-chlorophenyl)-1-(2-fluorobenzyl)-4-methyl-1H-pyrrole-2-carboxylic acid (3-imidazol-1-ylpropyl)-amide] | 93%
COc1ccc(CN2CCN(C(=O)c3c(-c4ccco4)c(C)cn3Cc3ccccc3)CC2)cc1F [Example 42, (1-benzyl-3-furan-2-yl-4-methyl-1H-pyrrol-2-yl)-[4-(3-fluoro-4-methoxybenzyl)-piperazin-1-yl]-methanone] | 88%
Cc1cn(Cc2ccccc2)c(C(=O)NC(C)c2ccc3ccccc3c2)c1-c1ccco1 (stereo not shown) [Example 81, 1-benzyl-3-furan-2-yl-4-methyl-1H-pyrrole-2-carboxylic acid (1-naphthalen-2-ylethyl)-amide] | 35%
CCOc1ccc(CCNC(=O)c2c(-c3ccc(OC)cc3)c(C)cn2Cc2ccc(F)cc2)cc1 [Example 47, 1-(4-fluorobenzyl)-3-(4-methoxyphenyl)-4-methyl-1H-pyrrole-2-carboxylic acid [2-(4-ethoxyphenyl)-ethyl]-amide] | 55%
COc1ccc(-c2c(C)cn(Cc3ccc(F)cc3)c2C(=O)NCCc2cccc(C(F)(F)F)c2)cc1 [Example 54, 1-(4-fluorobenzyl)-3-(4-methoxyphenyl)-4-methyl-1H-pyrrole-2-carboxylic acid [2-(3-trifluoromethylphenyl)-ethyl]-amide] | 42%
COc1ccc(-c2c(C)cn(Cc3ccc(F)cc3)c2C(=O)N2CCN(CCN(C)C)CC2)cc1 [Example 72, [4-(2-dimethylamino-ethyl)-piperazin-1-yl]-[1-(4-fluorobenzyl)-3-(4-methoxyphenyl)-4-methyl-1H-pyrrol-2-yl]-methanone] | 81%
COc1ccc(Cn2cc(C)c(-c3ccco3)c2C(=O)NCCC2CCCN2C)cc1 (stereo not shown) [Example 40, 3-furan-2-yl-1-(4-methoxybenzyl)-4-methyl-1H-pyrrole-2-carboxylic acid [2-(1-methylpyrrolidin-2-yl)-ethyl]-amide] | 81%
Cc1cn(C)c(C(=O)NCCCN2CCCCC2C)c1-c1ccc(Cl)cc1 (stereo not shown) [Example 78, 3-(4-chlorophenyl)-1,4-dimethyl-1H-pyrrole-2-carboxylic acid [3-(2-methylpiperidin-1-yl)-propyl]-amide] | 86%
